Test system: advanced colorectal cancer (CRC)
Test: Survival of advanced colorectal cancer patients treated with temozolomide, stratified by tumor MGMT protein level (SRM mass spectrometry)
Assay type: in vivo
Details: for median progression-free survival (PFS): treated with temozolomide
Excerpt: 24 patients from Fondazione IRCCS Istituto Nazionale dei TumoriVia Venezian, Milan, Italy, were identified with advanced colorectal cancer (CRC). Tumors were surgically removed prior to treatment and archived as formalin-fixed, paraffin-embedded (FFPE) tissue and all were histologically colorectal cancer. All 24 patients were subsequently treated with temozolomide.
Archived formalin-fixed, paraffin-embedded tissue sections were obtained from patients with advanced CRC treated with temozolomide (n=24). A board-certified pathologist marked the tumor areas. Based on the markups, tumor cells were laser microdissected and solubilized to tryptic peptides using the Liquid Tissue process. In each liquefied sample, multiple protein biomarkers including MGMT were quantified by selected reaction monitoring (SRM) mass spectrometry (MS). A mixture of stable isotope-labeled heavy peptides including the MGMT fragment peptide TTLDSPLGK was added prior to MS analysis. Each sample was analyzed in triplicate. […] The Mantel-Cox log-rank and Gehan-Breslow-Wilcoxon tests were used for survival comparisons.

`Cn1nnc2c(C(N)=O)ncn2c1=O` [temozolomide] was tested, and the “median progression-free survival (PFS)” value (CRC patients with MGMT levels above cutoff of 200 amol/μg) was 1.6 months, the “median progression-free survival (PFS)” value (CRC patients with MGMT protein levels below cutoff of 200 amol/μg (n=11), p=0.0611 vs above cutoff) was 4.3 months and the “ratio of median progression-free survival, MGMT below cutoff vs above cutoff” value (cutoff 200 amol/μg, temozolomide-treated CRC patients) was “approximately 2.5 times”.

From US20200271654A1, “Quantifying MGMT Protein For Optimal Cancer Therapy” (Expression Pathology, Inc., priority 2017, published 2020)
